Source: PMC3172300, “Modulation of Catalytic Activity in Multi-Domain Protein Tyrosine Phosphatases” (PLoS ONE, 2011)
Where “and” joins values, the source holds several entries; their conditions need not be identical. Identical values can stand only once. Like-named read-outs stand apart in the source and are kept apart here. Square brackets hold non-standard residues; d marks the D form. Peptide text beside a SMILES is read from it. pY = N[C@@H](Cc1ccc(OP(=O)(O)O)cc1)C(=O)O

How the values were obtained:
DLAR D1 = molecular target: T1, DLAR D1 (Drosophila melanogaster, UniProt P16621); assay: Phosphatase assay using pNPP, DLAR D1; assay type: biochemical; details: CGH buffer pH 6.5, 100 mM NaCl, 2 mM DTT
T1 construct: DLAR 1448-1746; His tag (pET-15b or pET-22b); made in house; host or cells: E. coli BL21(DE3)
T1 sequence (P16621 1448-1746): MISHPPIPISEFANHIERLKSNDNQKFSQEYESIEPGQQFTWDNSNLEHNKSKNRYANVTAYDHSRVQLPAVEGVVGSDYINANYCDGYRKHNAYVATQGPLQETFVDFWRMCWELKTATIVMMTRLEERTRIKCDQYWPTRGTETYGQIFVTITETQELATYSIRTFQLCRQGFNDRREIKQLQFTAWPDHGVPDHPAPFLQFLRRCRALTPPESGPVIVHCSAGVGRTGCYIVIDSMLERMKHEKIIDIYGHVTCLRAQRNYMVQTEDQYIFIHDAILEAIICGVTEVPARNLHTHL
Protocol: (§1) Phosphatase activity of the recombinant PTP domains was determined by using para-Nitrophenylphosphate (pNPP), a small molecule generic substrate, as well as phosphotyrosine containing peptides. The pNPP assay was performed as reported previously, with a modification in the buffer composition (25 mM Citrate, Glycine and HEPES (CGH), pH 6.5, 100 mM NaCl and 2 mM DTT). Phosphatase activity with the phosphotyrosine peptides was ascertained by the malachite green reaction as described for PTPs previously. Briefly, the reaction mixture comprised of 0.01 µM protein incubated with increasing concentrations of different peptides in 25 mM citrate buffer pH 6.0, 100 mM NaCl and 2 mM DTT for 15 min at 25°C. The reaction was stopped by the addition of the Biomol Green reagent (Enzo Life Sciences) and the colour developed after 20 min was quantified at 650 nm. For all the assays, kinetic constants for the steady state catalysis were obtained by fitting the reaction curves to the Michaelis-Menten equation using the nonlinear regression module of Sigma plot software (Systat Software, Inc.).
The tandem PTP domains of PTP99A (PTP99A D1D2) and DLAR (DLAR D1D2) , the individual PTP domains (D1 and D2) as well as the active site mutants were expressed in E. coli and were purified using the protocols described earlier (Figure 1a, Figure S1a, b & c). The biochemical characterization and catalytic activity measurements were performed using pNPP as a substrate. […] Thus the D2 domain appears to have a regulatory role in both RPTPs- decreasing the catalytic activity in the case of DLAR while increasing the catalytic activity in the case of PTP99A (Figure 1b).

DLAR D2 = molecular target: T2, DLAR D2 (Drosophila melanogaster, UniProt P16621); assay: Phosphatase assay using pNPP, DLAR D2; assay type: biochemical; details: CGH buffer pH 6.5
T2 construct: DLAR 1728-2029; His tag (pET-15b or pET-22b); made in house; host or cells: E. coli BL21(DE3)
T2 sequence (P16621 1728-2029): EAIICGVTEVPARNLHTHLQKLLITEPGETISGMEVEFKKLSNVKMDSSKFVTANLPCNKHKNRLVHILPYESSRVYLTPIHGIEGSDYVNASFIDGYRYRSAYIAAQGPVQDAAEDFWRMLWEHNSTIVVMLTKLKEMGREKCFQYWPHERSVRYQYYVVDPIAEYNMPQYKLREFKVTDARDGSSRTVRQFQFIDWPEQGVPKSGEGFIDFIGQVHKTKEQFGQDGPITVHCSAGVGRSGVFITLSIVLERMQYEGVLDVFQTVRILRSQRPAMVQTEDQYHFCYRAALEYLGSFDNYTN
Protocol: as §1

DLAR D1D2 = molecular target: T3, DLAR D1D2 (Drosophila melanogaster, UniProt P16621); assay: Surface Plasmon Resonance peptide binding, DLAR D1D2; details: two-site model, read-out: ka
T3 construct: DLAR 1448-2029; His tag (pET-15b or pET-22b); made in house; host or cells: E. coli BL21(DE3)
T3 sequence (P16621 1448-2029): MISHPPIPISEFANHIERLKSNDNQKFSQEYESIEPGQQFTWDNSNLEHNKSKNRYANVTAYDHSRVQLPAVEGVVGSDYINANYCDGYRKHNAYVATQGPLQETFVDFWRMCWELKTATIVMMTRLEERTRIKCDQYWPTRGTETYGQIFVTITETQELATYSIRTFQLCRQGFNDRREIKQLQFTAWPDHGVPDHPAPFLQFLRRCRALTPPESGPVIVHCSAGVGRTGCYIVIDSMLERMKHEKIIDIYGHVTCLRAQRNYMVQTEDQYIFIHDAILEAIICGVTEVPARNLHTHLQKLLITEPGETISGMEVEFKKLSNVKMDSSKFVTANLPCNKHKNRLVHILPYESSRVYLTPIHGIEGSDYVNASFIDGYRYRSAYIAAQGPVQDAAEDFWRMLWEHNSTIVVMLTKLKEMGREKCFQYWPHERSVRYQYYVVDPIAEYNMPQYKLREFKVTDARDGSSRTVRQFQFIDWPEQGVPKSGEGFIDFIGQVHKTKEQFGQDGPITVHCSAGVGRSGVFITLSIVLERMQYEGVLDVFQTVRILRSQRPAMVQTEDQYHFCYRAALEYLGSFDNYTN
Protocol: (§2) The binding of phosphotyrosine peptides to the PTP domains was studied by Surface Plasmon Resonance on a Biacore-2000 instrument (BIAcore, AB). All experiments were conducted at 25°C. DLAR PTP domains were immobilized onto carboxylated dextran CM5 chips (BIAcore AB) using the standard amine coupling procedure as recommended by the manufacturer. Binding and kinetic assays were performed in 10 mM HEPES, pH 8.0, 150 mM NaCl, 10 mM DTT and 3 mM EDTA at a flow rate of 5 µL/min. The peptides were used at concentrations ranging from 50–700 µM. Dissociation was initiated by replacing the analyte with buffer. The association and dissociation curves were monitored for 600 sec. Sensograms were analyzed with BIA-evaluation software version 2 (BIAcore AB). Sensograms for DLAR D1D2, DLAR D1HSSD2 and DLAR D1D2HSS were fitted to two-site binding equations. DLAR D1 and DLAR D2 sensograms were fitted using a single-site binding model.

DLAR D1 D2HSS = molecular target: T4, DLAR D1 D2HSS (Drosophila melanogaster, UniProt P16621, C1961S); assay: Surface Plasmon Resonance peptide binding, DLAR D1 D2HSS; details: two-site model, read-out: ka
T4 construct: DLAR 1448-2029; His tag (pET-15b or pET-22b); made in house; host or cells: E. coli BL21(DE3)
Protocol: as §2

[1] = pH 8, SPR Biacore-2000, 25°C, 10 mM HEPES pH 8.0, 150 mM NaCl, 10 mM DTT, 3 mM EDTA, peptides 50–700 µM, first binding site
[2] = pH 8, SPR, 25°C, pH 8.0, second binding site

T4 sequence (P16621 1448-2029 C1961S): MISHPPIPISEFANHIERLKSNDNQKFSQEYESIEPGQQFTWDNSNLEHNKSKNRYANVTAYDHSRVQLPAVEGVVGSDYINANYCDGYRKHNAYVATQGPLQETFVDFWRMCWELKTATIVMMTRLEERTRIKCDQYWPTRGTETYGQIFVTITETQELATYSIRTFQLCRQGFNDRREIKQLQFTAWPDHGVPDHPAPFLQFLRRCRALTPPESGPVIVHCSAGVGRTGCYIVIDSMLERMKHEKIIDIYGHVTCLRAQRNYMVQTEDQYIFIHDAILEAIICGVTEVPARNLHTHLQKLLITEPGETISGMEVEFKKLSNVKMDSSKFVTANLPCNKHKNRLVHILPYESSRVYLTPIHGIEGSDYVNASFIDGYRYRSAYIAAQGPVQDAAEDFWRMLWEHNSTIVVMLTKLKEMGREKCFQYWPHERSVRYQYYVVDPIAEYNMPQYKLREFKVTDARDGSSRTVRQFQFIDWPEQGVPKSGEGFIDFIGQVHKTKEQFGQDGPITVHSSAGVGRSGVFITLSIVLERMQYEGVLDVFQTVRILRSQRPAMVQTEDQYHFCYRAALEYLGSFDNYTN

| SMILES | Kcat (DLAR D1) [s⁻¹] | Kcat/Km (DLAR D1) | Vmax (DLAR D1; Michaelis-Menten fit) | PTPase activity (DLAR D2) | kon (DLAR D1D2; [1]) [M⁻¹ s⁻¹] | kon (DLAR D1D2; [2]) [M⁻¹ s⁻¹] | kon (DLAR D1 D2HSS; [1]) [M⁻¹ s⁻¹] | kon (DLAR D1 D2HSS; [2]) [M⁻¹ s⁻¹] |
| --- | --- | --- | --- | --- | --- | --- | --- | --- |
| O=[N+]([O-])c1ccc(OP(=O)(O)O)cc1 [pNPP, para-Nitrophenylphosphate] | 16.10 ± 0.27 | 16.03 ± 0.11 x 10^3 sec^-1M^-1 | 20.56 µmol/min/mg and 20.56 ± 0.34 µmol/min/mg | no detectable activity | – | – | – | – |
| CC(C)C[C@H](NC(=O)[C@H](C)NC(=O)CNC(=O)[C@H](Cc1ccc(OP(=O)(O)O)cc1)NC(=O)[C@H](CC(=O)O)NC(=O)[C@@H]1CCCN1C(=O)[C@H](CCC(=O)O)NC(=O)[C@H](C)NC(=O)[C@@H](N)[C@@H](C)O)C(=O)N[C@@H](Cc1ccc(O)cc1)C(=O)N[C@@H](CCC(=O)O)C(=O)O [Cuticle peptide] (H-TAEPD[pY]GALYE-OH) | – | – | – | – | 32.6 ± 1.57 | 16500 ± 2.3e+07 | 51.7 ± 0.61 | 1.37 ± 0.4 |
